Laboratory results as given in patent US20100104518A1, “CHEWING GUM, CONFECTION, AND OTHER ORAL DELIVERY VEHICLES CONTAINING A TRADITIONAL CHINESE MEDICINE OR EXTRACT THEREOF” (priority 2006, published 2010).

Key:
Format in all cases: cell-based
F. nucleatum [1] = assay: Minimum Bactericidal Concentration (MBC) test of TCM extracts on oral bacteria; details: transfer from non-turbid tubes to fresh growth media, 48 hrs
Method: (§1) To evaluate the germ-kill efficacy, the dried crude TCM bark, stem, leaf or root was ground to powder. 10-50 grams of TCM powder was mixed with 100 ml of ethanol. The mixture was super-sonicated for 10-15 minutes to extract the TCM actives. The mixture was further transferred into a Mixxor solid-liquid phase extractor for extracting about 50 strokes. The solution was filtered by a 0.45 um Millipore filter. For determination of the TCM extract concentration, slight amount of TCM extract sample was accurately weighed on a pre-weighed aluminum weighing dish. It was dried in a 45° C. oven for 2 hours to evaporate ethanol. The sample dish was weighed again, and the concentration of TCM extract was determined as: conc.=(Dry weight−dish weight)/(wet weight−dish weight)×100%.
(§2) The germ-kill efficacy was determined by a Minimum Inhibitive Concentration test (MIC) and a Minimum Bactericidal Concentration (MBC) test. […] The solution was then serially diluted two-fold so that each subsequent dilution contained 50% of the compound concentration of the previous dilution while maintaining a constant level of nutrients for each dilution. These dilutions were inoculated with representative oral microorganisms, and incubated for 24 hrs at 37° C. For each TCM compound, the lowest dilution that was not turbid was registered as the MIC. The MBC was determined by transferring […] of liquid from no-turbid tubes to fresh growth media and incubated for 48 hrs. […] Table A & B list the MIC and MBC data on P. gingivalis, F. nucleatum and S. nutans.

S. mutans [2] = assay: as above; details: transfer from non-turbid tubes to fresh growth media, 48 hrs
Method: as §1, §2

P. gingivalis [3] = assay: as above; details: transfer from non-turbid tubes to fresh growth media, 48 hrs
Method: as §1, §2

F. nucleatum [4] = assay: Minimum Inhibitive Concentration test (MIC) of TCM extracts on oral bacteria; details: ethanol TCM extract; Schaedler broth, two-fold dilutions, 24 hrs at 37° C.
Method: as §1, §2

S. mutans [5] = assay: as above; details: ethanol TCM extract; Schaedler broth, two-fold dilutions, 24 hrs at 37° C.
Method: as §1, §2

P. gingivalis [6] = assay: as above; details: ethanol TCM extract; Schaedler broth, two-fold dilutions, 24 hrs at 37° C.
Method: as §1, §2

MIC F. nucleatum (F. nucleatum [4]): 5 ng/mL | MIC S. mutans (S. mutans [5]): 5 ng/mL | MIC P. gingivalis (P. gingivalis [6]): 2.5 ng/mL
SMILES: N=C(NCCCCCCNC(=N)NC(=N)Nc1ccc(Cl)cc1)NC(=N)Nc1ccc(Cl)cc1.O=C(O)[C@H](O)[C@@H](O)[C@H](O)[C@H](O)CO.O=C(O)[C@H](O)[C@@H](O)[C@H](O)[C@H](O)CO [Chlorohexdine Gluconate]
MBC F. nucleatum (F. nucleatum [1]): 10 ng/mL | MBC S. mutans (S. mutans [2]): 10 ng/mL | MBC P. gingivalis (P. gingivalis [3]): 5 ng/mL
